From ChEMBL document CHEMBL1147956 (Bioorg Med Chem Lett, 2007) come the findings set out here.

This assay addresses T1, Inhibitor of nuclear factor kappa-B kinase subunit beta (Homo sapiens, UniProt O14920).
T1 sequence (O14920 whole entry): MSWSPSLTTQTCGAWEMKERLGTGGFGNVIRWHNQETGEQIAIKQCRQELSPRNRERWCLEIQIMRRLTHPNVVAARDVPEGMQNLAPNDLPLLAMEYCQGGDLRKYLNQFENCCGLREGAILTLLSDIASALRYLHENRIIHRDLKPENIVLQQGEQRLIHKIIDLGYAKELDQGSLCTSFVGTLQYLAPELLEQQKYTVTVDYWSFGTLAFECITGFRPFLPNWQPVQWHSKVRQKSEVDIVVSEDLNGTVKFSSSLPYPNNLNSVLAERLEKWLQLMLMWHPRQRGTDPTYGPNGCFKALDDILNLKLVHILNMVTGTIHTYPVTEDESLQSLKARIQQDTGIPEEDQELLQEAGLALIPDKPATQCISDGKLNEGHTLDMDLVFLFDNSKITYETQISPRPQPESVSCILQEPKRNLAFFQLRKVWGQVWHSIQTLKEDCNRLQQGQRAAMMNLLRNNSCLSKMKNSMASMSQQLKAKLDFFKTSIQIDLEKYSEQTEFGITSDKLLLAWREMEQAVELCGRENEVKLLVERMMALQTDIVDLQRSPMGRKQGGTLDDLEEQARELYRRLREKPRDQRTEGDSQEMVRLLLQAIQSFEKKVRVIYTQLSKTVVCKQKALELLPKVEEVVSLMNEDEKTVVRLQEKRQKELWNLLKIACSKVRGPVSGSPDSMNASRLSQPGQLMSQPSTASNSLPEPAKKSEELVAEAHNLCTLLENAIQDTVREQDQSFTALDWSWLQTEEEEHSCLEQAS
The assay is described as follows: Inhibition of IKK-beta after 30 mins.

For the compound `Cc1cc(-c2c3ccccc3c(Br)c3sc(C)c(C)c23)cc(C)c1O[C@H](Cc1ccccc1)C(=O)O` [ERTIPROTAFIB], half-maximal inhibition (IC50) was put at 400 nM.
